# Results published in patent US4725683A, “Fluorophenoxyphenoxypropionates and derivatives thereof” (The Dow Chemical Company, priority 1985, dated 1988).
# Tests used:
# Type in all cases: in vivo
# [1] = tested on: Yellow Foxtail; assay: Postemergent activity
# Summary of the method: (§1)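 Potted plants about 10 cm tall were sprayed to run-off with the active ingredient. The active was first taken up in acetone at twice the final concentration, then mixed with an equal amount of water containing 0.1% by weight TWEEN 200 surfactant. Pots were then kept under conditions suited to growth.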
# [2] = tested on: Cheatgrass; assay: Postemergent activity
# Summary of the method: as §1
# [3] = tested on: Green Foxtail; assay: Postemergent activity
# Summary of the method: as §1
# [4] = tested on: Blackgrass; assay: Postemergent activity
# Summary of the method: as §1
# [5] = tested on: Barley; assay: Postemergent activity
# Summary of the method: as §1
# [6] = tested on: Wild Proso Millet; assay: Selective postemergence, track sprayer
# Protocol: (§2) Representative compositions of the present invention were evaluated for the postemergence control of species of plants listed in Table A. In these evaluations, pots of the plant species listed in Table A, grown to a height of about 10 cms, were used. Aqueous spray compositions, containing various amounts of 2-[4-(2-fluoro-4-trifluoromethylphenoxy)-phenoxy]propionic acid methy ester, i.e., 125 ppm, 62.5 ppm, 31.25 ppm, 15.6 ppm, 7.8 ppm and 3.9 ppm, respectively, were applied to separate pots. The spray compositions were made by mixing the active ingredient in acetone to 1/2 the final volume, i.e., twice the final concentration. An equal amount of water was added to the active ingredient/acetone mixture wherein the water contained 0.1 percent by weight of TWEEN® 200 surfactant. The application to the plants was made to the point of run-off and was carried out with conventional spraying equipment. Other pots were sprayed with similar compositions containing no toxicant to serve as controls. Thereafter, the pots were maintained under conditions conducive for plant growth. Two weeks after treatment, the pots were examined for plant growth and evaluated on a scale of 0 to 100 where 0 represents no effect and 100 represents complete kill. The results of the examination of the treated pots are set forth below in Table A.
# (§3) To further define the selective postemergence herbicidal characteristics of compounds of the present invention, chemicals were applied to additional species of grasses as listed in Table F. Chemicals evaluated were 2-[4-(4-bromo-2-fluorophenoxy)phenoxy]propionic acid methyl ester and its R isomer. Treatment conditions were similar to those described in Example A except that chemicals were delivered through a track sprayer set to deliver the appropriate dosages in 280.6 L/hectare of water containing 0.1% Tween-20 surfactant.
# [7] = tested on: Wheat; assay: Selective postemergence, track sprayer
# Protocol: as §2, §3
# [8] = tested on: Green Foxtail; assay: Selective postemergence, track sprayer
# Protocol: as §2, §3
# [9] = tested on: Blackgrass; assay: Selective postemergence, track sprayer
# Protocol: as §2, §3
# [10] = tested on: Wheat; assay: Postemergent activity; details: Triticum aestivum, post-emergence, 336 h, read-out: % Control
# Summary of the method: (§4)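 Pots of plants about 10 cm tall sprayed to run-off at 125, 62.5, 31.25, 15.6, 7.8 and 3.9 ppm. Spray: active in acetone mixed with an equal volume of water containing 0.1% TWEEN 200. Growth scored two weeks later on a 0–100 scale (0 no effect, 100 complete kill).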
# [11] = tested on: Wild Oats; assay: Postemergent activity; details: Avena fatua, post-emergence, 336 h
# Summary of the method: as §4
compound,measurement,setting,value
"COC(=O)C(C)Oc1ccc(Oc2ccc(Br)cc2F)cc1 (racemic) [Example 4-Bromo-, 2-[4-(4-bromo-2-fluorophenoxy)phenoxy]propionic acid methyl ester]",% Control,[1]; 0.2 ppm,0%
same,% Control,[1]; 0.4 ppm,0%
same,% Control,[1]; 0.8 ppm,20%
same,% Control,[1]; 1.5 ppm,50%
same,% Control,[1]; 3.1 ppm,80%
same,% Control,[1]; 6.25 ppm,100%
same,% Control,[1]; 12.5 ppm,100%
same,% Control,[1]; 25 ppm,100%
same,% Control,[2]; 0.2 ppm,0%
same,% Control,[2]; 0.4 ppm,0%
same,% Control,[2]; 0.8 ppm,0%
same,% Control,[2]; 1.5 ppm,0%
same,% Control,[2]; 3.1 ppm,0%
same,% Control,[2]; 6.25 ppm,0%
same,% Control,[2]; 12.5 ppm,0%
same,% Control,[2]; 25 ppm,0%
same,% Control,[3]; 0.2 ppm,20%
same,% Control,[3]; 0.4 ppm,90%
same,% Control,[3]; 0.8 ppm,90%
same,% Control,[3]; 1.5 ppm,100%
same,% Control,[3]; 3.1 ppm,100%
same,% Control,[3]; 6.25 ppm,100%
same,% Control,[3]; 12.5 ppm,100%
same,% Control,[3]; 25 ppm,100%
same,% Control,[4]; 0.2 ppm,0%
same,% Control,[4]; 0.4 ppm,10%
same,% Control,[4]; 0.8 ppm,30%
same,% Control,[4]; 1.5 ppm,50%
same,% Control,[4]; 3.1 ppm,70%
same,% Control,[4]; 6.25 ppm,99%
same,% Control,[4]; 12.5 ppm,100%
same,% Control,[4]; 25 ppm,100%
same,% Control,[5]; 3.9 ppm,0%
same,% Control,[5]; 7.8 ppm,0%
same,% Control,[5]; 15.6 ppm,0%
same,% Control,[5]; 31.25 ppm,0%
same,% Control,[5]; 62.5 ppm,10%
same,% Control,[5]; 125 ppm,10%
same,% Control,[5]; 250 ppm,10%
same,% Control,[5]; 500 ppm,30%
same,Percent Control,[6]; 0.0011 kgs/hectare,20%
same,Percent Control,[6]; 0.0023 kgs/hectare,20%
same,Percent Control,[6]; 0.0045 kgs/hectare,70%
same,Percent Control,[6]; 0.009 kgs/hectare,80%
same,Percent Control,[6]; 0.035 kgs/hectare,100%
same,Percent Control,[6]; 0.07 kgs/hectare,100%
same,Percent Control,[6]; 0.14 kgs/hectare,100%
same,Percent Control,[6]; 0.28 kgs/hectare,100%
same,Percent Control,[6]; 0.56 kgs/hectare,100%
same,Percent Control,[7]; 0.0011 kgs/hectare,0%
same,Percent Control,[7]; 0.0023 kgs/hectare,0%
same,Percent Control,[7]; 0.0045 kgs/hectare,0%
same,Percent Control,[7]; 0.009 kgs/hectare,0%
same,Percent Control,[7]; 0.018 kgs/hectare,0%
same,Percent Control,[7]; 0.035 kgs/hectare,0%
same,Percent Control,[7]; 0.07 kgs/hectare,0%
same,Percent Control,[7]; 0.14 kgs/hectare,10%
same,Percent Control,[7]; 0.28 kgs/hectare,40%
same,Percent Control,[7]; 0.56 kgs/hectare,50%
same,Percent Control,[8]; 0.0011 kgs/hectare,0%
same,Percent Control,[8]; 0.0023 kgs/hectare,20%
same,Percent Control,[8]; 0.0045 kgs/hectare,90%
same,Percent Control,[8]; 0.009 kgs/hectare,90%
same,Percent Control,[8]; 0.035 kgs/hectare,100%
same,Percent Control,[8]; 0.07 kgs/hectare,100%
same,Percent Control,[8]; 0.14 kgs/hectare,100%
same,Percent Control,[8]; 0.28 kgs/hectare,100%
same,Percent Control,[8]; 0.56 kgs/hectare,100%
same,Percent Control,[9]; 0.0011 kgs/hectare,30%
same,Percent Control,[9]; 0.0023 kgs/hectare,50%
same,Percent Control,[9]; 0.0045 kgs/hectare,50%
same,Percent Control,[9]; 0.009 kgs/hectare,100%
same,Percent Control,[9]; 0.035 kgs/hectare,100%
same,Percent Control,[9]; 0.07 kgs/hectare,100%
same,Percent Control,[9]; 0.14 kgs/hectare,100%
same,Percent Control,[9]; 0.28 kgs/hectare,100%
same,Percent Control,[9]; 0.56 kgs/hectare,100%
same,plant injury at 3.9 ppm,[10]; 3.9 ppm,0%
same,plant injury at 7.8 ppm,[10]; 7.8 ppm,0%
same,plant injury at 15.6 ppm,[10]; 15.6 ppm,0%
same,plant injury at 31.25 ppm,[10]; 31.25 ppm,0%
same,plant injury at 62.5 ppm,[10]; 62.5 ppm,0%
same,plant injury at 125 ppm,[10]; 125 ppm,0%
same,plant injury at 250 ppm,[10]; 250 ppm,0%
same,plant injury at 500 ppm,[10]; 500 ppm,0%
same,pest or weed control at 3.9 ppm,[11]; 3.9 ppm,70%
same,pest or weed control at 7.8 ppm,"[11]; 7.8 ppm, read-out: % Control",80%
same,pest or weed control at 15.6 ppm,"[11]; 15.6 ppm, read-out: % Control",100%
same,pest or weed control at 31.25 ppm,"[11]; 31.25 ppm, read-out: % Control",100%
same,pest or weed control at 62.5 ppm,"[11]; 62.5 ppm, read-out: % Control",100%
same,pest or weed control at 125 ppm,"[11]; 125 ppm, read-out: % Control",95%
same,pest or weed control at 250 ppm,"[11]; 250 ppm, read-out: % Control",100%
same,pest or weed control at 500 ppm,"[11]; 500 ppm, read-out: % Control",100%
